# Measured values reported in patent US20090111736A1, “Orally-Absorbed Solid Dose Formulation for Vancomycin” (SRI International, priority 2007, published 2009).
# Counter-ions that a name gives are not always drawn. Like-named read-outs stand apart in the source and are kept apart here.
# Experiments:
# [1] = In vitro mucosal-to-serosal vancomycin transport, modified Ussing chambers, jejunum; format: in vitro ADME, rat; settings: male, rat
# Source text: (§1) We investigated regional variation in permeation of vancomycin (VCM) across various segments of rat intestine and colon in vitro by mounting isolated segments of rat intestine and colon between horizontal modified Ussing chambers. The effects of drug concentration and of addition of a p-glycoprotein inhibitor or permeation enhancer(s) as formulation additives on VCM permeation were also studied in vitro using segments of rat jejunum.
# (§2) Methods: A modified Ussing system (Easy mount Ussing system, Physiological Instruments Inc., CA, Item # EM-CSYS-8) with eight sets of chambers was used for all in vitro studies; each set consisted of two parallel diffusion chambers, a heating block for temperature control, needle valves for gas flow adjustment and gas mixing, and Ag/AgCl voltage and current electrodes for measuring transepithelial voltage and for passing current.
# (§3) Harvesting of required small intestinal or colon segments of a male rat was performed using experimental procedures described in the literature (Gotoh et al., J Biomol Screen (2005) 10:517-23). The harvested segments of small intestine or colon were mounted on sliders placed between the two horizontal chambers of a modified Ussing system.
# (§4) VCM was dissolved in HEPES buffer pH 7.4 (Table 1) previously saturated with 100% O2 or HEPES buffer containing additives selected from permeation enhancer(s) and/or an efflux transport inhibitor (Table 2) to obtain predetermined concentrations of drug and additive(s).
# Drug transport across epithelial membranes of harvested rat small intestine and colon segments, in mucosal-to-serosal (M-to-S) direction, was studied using modified Ussing Chambers. Aliquots of HEPES buffer (5 ml) were initially added to both the mucosal and serosal chambers and allowed to equilibrate for 20 minutes. The HEPES buffer in the mucosal chamber was replaced by a study sample containing VCM alone or VCM and selected additive(s) in HEPES buffer, e.g., 5 mg/mL of VCM dissolved in HEPES buffer containing 10% w/w Labrasol®. Aliquots of 0.5 mL buffer solutions were removed periodically from serosal chambers, and replaced with equal volumes of fresh warm (37±2° C.) HEPES buffer previously saturated with 100% O2. […]
# (§5) Changes in transepithelial short-circuit current (in micro-Amps) and membrane resistance (in Ohms) as a function of time were monitored continuously during in vitro studies to serve as indicators of tissue viability and drug permeability, respectively. The buffer samples from the receptor chambers were analyzed for VCM content on a high pressure liquid chromatograph (HPLC; Hewlett Packard Model 1100 series).
# (§6) The analysis of VCM samples was performed using a reverse phase gradient HPLC method, with a Hypersil BDS C18 column, 5 μm, 150×4.6 mm., mobile phase consisting of 5 mM potassium phosphate monobasic in water (pH 3) as solvent A and acetonitrile as solvent B at a flow rate of 1 ml/min (Farin et al., J Pharm Biomed Anal (1998) 18:367-72). The eluant was monitored by a UV/diode array detector at 280 nm.
# (§7) To compare data obtained from different in vitro experiments, the apparent permeability coefficients were calculated using the equation: […]
# (§8) Where dQ/dt is the linear appearance rate of mass in receiver compartment, C0 is the initial solute concentration in donor compartment, and A is the surface area (Luo et al., Drug Metab Dispos (2002) 30:763-70).
# [2] = cited from earlier work
# rat ileum = assay: In vitro mucosal-to-serosal vancomycin transport, modified Ussing chambers, ileum; format: in vitro ADME; settings: 5 mg/ml vancomycin in HEPES buffer
# Source text: as §1, §2, §3, §4
# (§9) Drug transport across epithelial membranes of harvested rat small intestine and colon segments, in mucosal-to-serosal (M-to-S) direction, was studied using modified Ussing Chambers. Aliquots of HEPES buffer (5 ml) were initially added to both the mucosal and serosal chambers and allowed to equilibrate for 20 minutes. The HEPES buffer in the mucosal chamber was replaced by a study sample containing VCM alone or VCM and selected additive(s) in HEPES buffer, e.g., 5 mg/mL of VCM dissolved in HEPES buffer containing 10% w/w Labrasol®. Aliquots of 0.5 mL buffer solutions were removed periodically from serosal chambers, and replaced with equal volumes of fresh warm (37±2° C.) HEPES buffer previously saturated with 100% O2. To study the effect of additives in the serosal chamber (i.e., quinidine and sodium decanoate), HEPES buffer containing the selected additive was placed in the serosal chamber and replaced with the same buffer composition during sampling.
# as §5, §6, §7, §8
# [3] = as above; format: in vitro ADME, rat; settings: male, rat, pH 7.4, 5 mg/ml, HEPES buffer alone
# Source text: as §1, §2, §3, §4, §9, §5, §6, §7, §8
# [4] = In vitro mucosal-to-serosal vancomycin transport, modified Ussing chambers, duodenum; format: in vitro ADME, rat; settings: male, rat, pH 7.4, 5 mg/ml, HEPES buffer alone
# Source text: as §1, §2, §3, §4, §9, §5, §6, §7, §8
# rat duodenum = assay: as above; format: in vitro ADME; settings: 5 mg/ml vancomycin in HEPES buffer
# Source text: as §1, §2, §3, §4, §9, §5, §6, §7, §8
# [5] = rats, cited from earlier work
smiles,measurement,setting,value
CN[C@H](CC(C)C)C(=O)N[C@H]1C(=O)N[C@@H](CC(N)=O)C(=O)N[C@H]2C(=O)N[C@H]3C(=O)N[C@H](C(=O)N[C@H](C(=O)O)c4cc(O)cc(O)c4-c4cc3ccc4O)[C@H](O)c3ccc(c(Cl)c3)Oc3cc2cc(c3O[C@@H]2O[C@H](CO)[C@@H](O)[C@H](O)[C@H]2O[C@H]2C[C@](C)(N)[C@H](O)[C@H](C)O2)Oc2ccc(cc2Cl)[C@H]1O [Vancomycin hydrochloride],"Papp at 2.5 hr, 5 mg/ml","[1]; pH 7.4, 5 mg/ml, HEPES buffer alone, jejunum",6.2 ± 0.7 nm/s
same,Papp at 5 mg/ml,"[1]; pH 7.4, 5 mg/ml, jejunum, 1.0 mM sodium decanoate in mucosal chamber",17.4 ± 1 nm/s
same,Papp at 5 mg/ml,"[1]; pH 7.4, 5 mg/ml, jejunum, 1.0 mM sodium decanoate in serosal chamber",6 ± 0.2 nm/s
same,Papp at 5 mg/ml,"[1]; pH 7.4, 5 mg/ml, jejunum, HEPES buffer containing 5% w/w Gelucire ® 44/14",7.8 ± 0.3 nm/s
same,Papp at 5 mg/ml,"[1]; pH 7.4, 5 mg/ml, jejunum, HEPES buffer containing 5% w/w Gelucire ® 44/14 + 5% w/w Labrasol ®",7.1 ± 0.3 nm/s
same,Papp at 5 mg/ml,"[1]; pH 7.4, 5 mg/ml, jejunum, HEPES buffer containing 5% w/w Polysorbate-80",8.8 ± 0.9 nm/s
same,Papp at 5 mg/ml,"[1]; pH 7.4, 5 mg/ml, jejunum, HEPES buffer containing 5% w/w Polysorbate-80 + 5% w/w Labrasol ®",5.3 ± 0.6 nm/s
same,Papp at 5 mg/ml,"[1]; pH 7.4, 5 mg/ml, jejunum, HEPES buffer containing 5% w/w Vitamin E TPGS + 5% w/w Labrasol ®",5.6 ± 0.6 nm/s
same,Papp at 5 mg/ml,"[1]; pH 7.4, 5 mg/ml, jejunum, HEPES buffer containing 10% w/w Labrasol ®",3.6 ± 0.6 nm/s
same,Papp at 5 mg/ml,"[1]; pH 7.4, 5 mg/ml, jejunum, HEPES buffer containing 20% w/w Bile salts",36.7 ± 5.8 nm/s
same,"Papp at 2.5 hr, 10 mg/mL","[1]; pH 7.4, 10 mg/mL, HEPES buffer alone, jejunum",5.7 ± 1.3 nm/s
same,"Papp at 2.5 hr, 25 mg/mL","[1]; pH 7.4, 25 mg/mL, HEPES buffer alone, jejunum",5.4 ± 6.9 nm/s
same,"Papp at 2.5 hr, 50 mg/mL","[1]; pH 7.4, 50 mg/mL, HEPES buffer alone, jejunum",3.9 ± 4.7 nm/s
same,"Papp at 2.5 hr, 5 mg/mL","[1]; pH 7.4, jejunum, in the presence of 10% w/w Labrasol®",3.6 nm/s
same,"Papp at 2.5 hr, 5 mg/ml","[1]; pH 7.4, with quinidine 0.15 mM in the mucosal chamber, 5 mg/ml, jejunum, 0.15 mM Quinidine in mucosal chamber",7.9 ± 0.8 nm/s
same,"Papp at 2.5 hr, 5 mg/ml","[1]; pH 7.4, with quinidine 0.15 mM in the serosal chamber, 5 mg/ml, jejunum, 0.15 mM Quinidine in serosal chamber",20.6 ± 1.6 nm/s
same,solubility in water,[2],soluble in water
same,Ave. Cumulative Amt VCM Released,rat ileum; 0.5 hr,0.00 ± 0.00 µg
same,Ave. Cumulative Amt VCM Released,rat ileum; 1.0 hr,0.00 ± 0.00 µg
same,Ave. Cumulative Amt VCM Released,rat ileum; 1.5 hr,2.55 ± 0.67 µg
same,Ave. Cumulative Amt VCM Released,rat ileum; 2.0 hr,4.31 ± 1.17 µg
same,Ave. Cumulative Amt VCM Released,rat ileum; 2.5 hr,6.33 ± 1.66 µg
same,"Papp at 2.5 hr, 5 mg/ml",[3],3.8 ± 0.5 nm/s
same,"Papp at 2.5 hr, 5 mg/ml",[4],2 ± 0.5 nm/s
same,Ave. Cumulative Amt VCM Released,rat duodenum; 0.5 hr,0.00 ± 0.00 µg
same,Ave. Cumulative Amt VCM Released,rat duodenum; 1.0 hr,0.00 ± 0.00 µg
same,Ave. Cumulative Amt VCM Released,rat duodenum; 1.5 hr,0.40 ± 0.80 µg
same,Ave. Cumulative Amt VCM Released,rat duodenum; 2.0 hr,2.08 ± 0.87 µg
same,Ave. Cumulative Amt VCM Released,rat duodenum; 2.5 hr,3.51 ± 1.34 µg
same,absolute bioavailability,"[5]; oral administration of a water-in-oil-in-water (w/o/w) emulsion, VCM in inner aqueous phase",About 30%
same,absolute bioavailability,"[5]; oral, without any added absorption enhancer or enzyme inhibitor",less than 5%
